Experimental data taken from PubChem BioAssay (NCI).
Several values for one entry are separate records, joined by “and”; a condition that tells them apart may be missing. Identical values can stand only once.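 All cell lines were grown in 96-well plates and treated with compound for 48 hours. Here, GI50 denotes the concentration required for 50% inhibition of growth. TGI marks complete inhibition of growth.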

Legend:
Test in all cases: NCI tumour cell line growth inhibition, 48 h
[1] = tested on: IGROV1 ovarian
[2] = tested on: COLO 205 colon
[3] = tested on: OVCAR-8 ovarian
[4] = tested on: K-562 leukemia
[5] = tested on: OVCAR-5 ovarian
[6] = tested on: HCT-15 colon
[7] = tested on: RXF 393 renal
[8] = tested on: NCI-H23 lung
[9] = tested on: 786-0 renal
[10] = tested on: SNB-75 CNS

SMILES | GI50 [1] [µM] | TGI [1] | GI50 [2] | TGI [2] | GI50 [3] [µM] | TGI [3] [µM] | GI50 [4] | TGI [4] [µM] | GI50 [5] | TGI [5] | GI50 [6] [µM] | TGI [6] [µM] | GI50 [7] [µM] | TGI [7] | GI50 [8] | TGI [8] | GI50 [9] [µM] | TGI [9] | GI50 [10] [µM] | TGI [10]
O=C([O-])c1ccccc1Nc1ccccn1.O=C([O-])c1ccccc1Nc1ccccn1.[Ni+2] | > 100 | > 100 µM | > 100 µM | > 100 µM | > 100 | > 100 | 49.5 µM | > 100 | 75.6 µM | > 100 µM | > 100 | > 100 | > 100 | > 100 µM | > 100 µM | > 100 µM | > 100 | > 100 µM | – | –
CN1CCN(CCc2cccc(C(=O)c3cnn(-c4ccc(F)cc4)c3N)c2)CC1 | > 25 | > 25 µM | > 25 µM | > 25 µM | > 25 | > 25 | > 25 µM | > 25 | > 25 µM | > 25 µM | > 25 | > 25 | > 25 | > 25 µM | > 25 µM | > 25 µM | > 25 | > 25 µM | > 25 | > 25 µM
C[C@H](Nc1ncnc2nc[nH]c12)c1cc2cccc(Cl)c2c(=O)n1-c1ccccc1 | 1.58 | 7.51 µM | 19.7 µM | > 100 µM | 27 | > 100 | 46.9 µM | > 100 | 21.4 µM | > 100 µM | 31.5 | > 100 | 0.273 | 9.41 µM | 82.1 µM | > 100 µM | 1.42 | > 86.7 µM | 0.229 | 55.2 µM
COc1cc(C2c3cc4c(cc3[C@@H](Nc3ccc(C#N)cc3)C3COC(=O)[C@H]23)OCO4)cc(OC)c1O (some centres not stated) | 1.76 | 31.1 µM and 8.65 µM | 1.98 µM and 1.38 µM | 13 µM and 8.41 µM and 11.5 µM | 1.51 | – | 0.987 µM and 1.85 µM | – | 2.96 µM and 3.3 µM | 31.7 µM and 59.9 µM and > 100 µM | – | 18 | 2.53 | 4.96 µM and 9.01 µM | 0.753 µM and 0.532 µM | 2.53 µM and 3.67 µM and 4.36 µM | 0.112 | 1.92 µM and 1.19 µM | 0.787 | 42.6 µM and 56.3 µM
COc1ccc(N2C(C)=C(C#N)C34C(=O)N(c5ccccc5)C(=O)C3=C(O)C=CC24O)cc1 (configuration not stated) | 2.11 | 21.1 µM | 10.8 µM | 23.2 µM | 23.3 | > 100 | 28.3 µM | > 100 | 18.1 µM | 73.8 µM | 13.8 | 33.8 | 3.15 | 14.7 µM | 8.86 µM | 58 µM | 19 | 65.8 µM | 14.8 | 44.5 µM
CCN(CC)c1ccc(C(=C2C=CC(=[N+](CC)Cc3cccc(S(=O)(=O)O)c3)C=C2)c2ccc(N(CC)Cc3cccc(S(=O)(=O)O)c3)cc2)cc1 | 13.3 | > 100 µM | 1.87 µM | 3.83 µM | 4.8 | > 100 | 3.85 µM | 97.5 | 20.8 µM | > 100 µM | 28.5 | > 100 | 7.94 | 76.1 µM | 5.14 µM | 80.2 µM | 12.9 | 98.9 µM | 2.75 | 17.3 µM
CN(CCCN)CCCNc1nc2ccccc2c2[nH]c3ccccc3c12 | 0.329 | 1.21 µM | 0.178 µM | 0.509 µM | 0.0825 | 0.496 | 0.0638 µM | 0.346 | 0.18 µM | 0.652 µM | 0.446 | 9.68 | 0.109 | 0.515 µM | 0.201 µM | 0.57 µM | 0.169 | 0.853 µM | 0.272 | 0.943 µM
C[N+](C)(C)CC(=O)N/N=C(/Cc1nc2c3c(ccc2[nH]c1=O)C(=O)c1ccccc1C3=O)C(=O)Nc1ccc(Cl)c(Cl)c1 | – | > 100 µM | – | > 100 µM | – | > 100 | – | > 100 | – | > 100 µM | – | – | – | > 100 µM | – | > 100 µM | – | > 100 µM | – | –
Cc1cccc(NC(=O)CC(=O)N2N=C(N(CCC#N)c3ccc(Cl)cc3)CC2c2ccccc2)c1 (configuration not stated) | – | > 100 µM | – | > 100 µM | – | > 100 | – | > 100 | – | > 100 µM | – | – | – | > 100 µM | – | > 100 µM | – | > 100 µM | – | > 100 µM
COC1(C(=O)N[C@@H](C)c2ccc(-n3cc(F)cn3)nc2)CCC(c2nc(C)cc(Nc3cc(C)[nH]n3)n2)CC1 (some centres not stated) | – | – | 3.83 µM | 23.7 µM | 3.74 | 25.5 | 3.27 µM | > 100 | 1.4 µM | 12.5 µM | 2.93 | 13.3 | 0.177 | 0.665 µM | 2.6 µM | 19.9 µM | 1.33 | 8 µM | 0.196 | 0.848 µM
Cc1ccc(-c2c(N)[n+]([O-])c3ccccc3[n+]2[O-])cc1 | – | 29.8 µM | – | 34.7 µM | – | > 100 | – | > 100 | – | 32.5 µM | – | 15.3 | – | – | – | 19.5 µM | – | 28.6 µM | – | 26 µM
N#C/C(=C1\OC(=O)C(c2ccc(Br)cc2)=C1O)c1ccc(Br)cc1 | – | 34.4 µM | – | 34.5 µM | – | 24.6 | – | 61.7 | – | 33.2 µM | – | – | – | 26.7 µM | – | 26.2 µM | – | 27.9 µM | – | 32.4 µM
CN(C)/C=C/c1nnc([N+](=O)[O-])s1 | – | – | – | 10.3 µM | – | 53.3 | – | – | – | – | – | 32.2 | – | 31.4 µM | – | 36.8 µM | – | 36.3 µM | – | 66.6 µM
COc1ccc2nc3cc([N+](=O)[O-])ccc3c(NCCCCCN(C)C)c2c1 | 0.37 | 2.53 µM | 0.241 µM | 1.68 µM | 0.214 | 1.32 | 0.0255 µM | 0.353 | 0.497 µM | 3.92 µM | 1.31 | – | – | – | 0.25 µM | 1.54 µM | 0.15 | 1.07 µM | 0.247 | 1.1 µM
